{"source": "patent US10426758B2", "about": "“Sibiriline derivatives for use for preventing and/or treating disorders associated with cellular necroptosis” (Institut National de la Sante et de la Recherche Medicale …, priority 2015, dated 2019)", "key": {"[1]": {"system": "Jurkat FADD-deficient I 2.1 cell line", "assay": "Cell-based screening: TNF-α-induced necroptosis in Jurkat FADD-deficient cells, MTS viability assay", "set-up": "species or system human", "conditions": "for EC50: Homo sapiens, Jurkat, necroptosis induced by 10 ng/ml TNF-α, 24 hours, MTS viability; for inhibition of necroptosis induced by TNF-α (figure legend): human T lymphocyte, Jurkat FADD deficient cell line", "source_text": "TNF-α can induce necroptosis in Jurkat cells (human T lymphocytes) when FADD is deleted. This model was used to screen various libraries of chemical compounds for characterization of new inhibitors of cellular necroptosis. Details on this cell-based assay can be found in (Miao and Degterev, Methods Mol. Biol. 2009, 559, 79-93). The Jurkat FADD-deficient I 2.1 cell line used was purchased from ATCC and was maintained in RPMI 1640 medium (Gibco) containing Glutamax and 15% fetal calf serum (Life Technology). Necroptosis was induced by addition of 10 ng/ml of human recombinant TNF-α (Life Technology). Necrostatin-1 (Nec-1, Enzo Life Sciences) was used as model necroptosis inhibitor. Cells were maintained in 75 cm^2 flask and passed every 2 or 3 days. Chemical collections analysed were formatted in 96-well plates with 80 molecules per plates at 10 mM in 100% DMSO. For each collection plate, 2 cell plates were seeded (one necroptosis-induced with TNF-α and the other without TNF-α). Cells were seeded at 20000 cells/well, in 40 μl of medium, in a 96-well clear, flat bottom plate (CytoOne, Starlab) before treatment. Then, 40 μl of medium with or without TNF-α at 25 ng/ml were added to all wells in the corresponding plate. Immediately after TNF-α addition, 20 μl of diluted compound at 50 μM were added to the plates. Final concentration of each chemical compound was 10 μM at 0.1% DMSO. Four positives (Nec-1 at 10 μM final) and four negative (DMSO) controls were used in each plate to validate the assay. Cells were incubated at 37° C., 5% CO2 for 24 hours before performing MTS viability assay, described hereafter. Compounds were diluted before to treat cells. Liquid handling was performed using the Nimbus Microlab liquid handler (Hamilton Robotics) under microbiological safety workbench. The 10 mM compounds were diluted at 50 μM directly in cell medium."}, "Jurkat Fadd−/− [2]": {"system": "Jurkat Fadd−/−", "assay": "Necroptosis induced by TNF in Jurkat Fadd−/−, intracellular ATP level", "type": "cell-based", "conditions": "Homo sapiens", "experimental": "(§1) Besides, the IC50 of compound 3, compound 6 and necrostatin-1 (Nec-1) were determined in mouse or human cellular models of necroptosis induced by FasL+zVAD-fmk (a pan-caspase inhibitor) or TNF, and by using two cytotoxic assays (MTS Cell Proliferation assay or intracellular ATP level). As shown in the table below, compound 3 and compound 6 inhibit TNF-α or FasL-induced necroptosis with IC50 almost similar to those obtained with Nec-1."}, "L929sAhFas [3]": {"system": "L929sAhFas", "assay": "Necroptosis induced by FasL + zVAD-fmk in L929sAhFas, MTS Cell Proliferation assay", "type": "cell-based", "conditions": "Mus musculus", "experimental": "as §1"}, "L929sAhFas [4]": {"system": "L929sAhFas", "assay": "Necroptosis induced by FasL + zVAD-fmk in L929sAhFas, intracellular ATP level", "type": "cell-based", "conditions": "Mus musculus", "experimental": "as §1"}, "Jurkat Fadd−/− [5]": {"system": "Jurkat Fadd−/−", "assay": "Necroptosis induced by TNF in Jurkat Fadd−/−, MTS Cell Proliferation assay", "type": "cell-based", "conditions": "Homo sapiens", "experimental": "as §1"}, "[6]": {"target": "T1, Human RIPK1 full length GST-tagged (Homo sapiens, UniProt Q13546)", "T1 construct": "Human RIPK1 full length GST-tagged; made in house; host or cells: Sf9 insect cells (Bac-to-Bac baculovirus system)", "T1 sequence (Q13546 1-671)": "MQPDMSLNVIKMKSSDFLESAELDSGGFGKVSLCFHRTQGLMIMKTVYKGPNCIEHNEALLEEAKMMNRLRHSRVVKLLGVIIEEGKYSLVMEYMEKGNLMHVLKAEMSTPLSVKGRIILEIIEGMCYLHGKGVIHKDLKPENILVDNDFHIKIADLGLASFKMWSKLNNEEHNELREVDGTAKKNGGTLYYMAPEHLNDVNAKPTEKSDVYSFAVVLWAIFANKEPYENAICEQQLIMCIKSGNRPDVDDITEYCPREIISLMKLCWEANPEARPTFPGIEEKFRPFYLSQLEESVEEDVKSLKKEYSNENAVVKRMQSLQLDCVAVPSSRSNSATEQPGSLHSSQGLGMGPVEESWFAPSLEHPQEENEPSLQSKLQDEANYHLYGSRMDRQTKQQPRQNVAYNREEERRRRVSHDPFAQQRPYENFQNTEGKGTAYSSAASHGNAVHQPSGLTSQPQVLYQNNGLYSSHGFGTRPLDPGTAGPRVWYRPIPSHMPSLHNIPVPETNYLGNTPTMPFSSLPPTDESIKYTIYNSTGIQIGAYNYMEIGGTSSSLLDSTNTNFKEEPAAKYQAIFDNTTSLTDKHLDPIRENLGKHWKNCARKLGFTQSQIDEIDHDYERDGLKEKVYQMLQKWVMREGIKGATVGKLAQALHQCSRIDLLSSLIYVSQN", "assay": "RIPK1 autophosphorylation assay", "type": "biochemical", "conditions": "radioactively labeled RIPK1, [γ-32P] ATP, 30 minutes at 30° C.", "experimental": "Human RIPK1 full length GST-tagged was baculovirally expressed in Sf9 cells according to manufacturer's instructions (Bac-to-Bac expression system, Invitrogen) and purified using gluthation-sepharose beads (GE Healthcare). The elution was made in 50 mM Tris-HCl, pH 8.0 buffer supplemented with 30 mM reduced gluthatione (Sigma). The protocol used to detect the enzymatic activity is adapted from Miao and Degterev (Methods Mol. Biol. 2009, 559, 79-93). Kinase reaction was initiated mixing 5 μl of eluted RIPK1, 5 μl of 3× kinase reaction buffer (5 mM MOPS pH 7.2, 2.5 mM β-glycerophosphate, 4 mM MgCl2, 2.5 mM MnCl2, 1 mM EGTA, 0.4 mM EDTA, 50 μg/ml BSA, 0.05 mM DTT), 2 μl H2O and 3 μl of the tested molecule. The mixture was kept on ice for 10 minutes. During the incubation, the ATP solution was prepared by mixing 5 μl of 3× kinase reaction buffer, 4 μl H2O, 6 μl cold ATP at 150 μM and 2 μCi of [γ-^32P] ATP. Add the ATP solution and the tested inhibitor to the kinase and incubate for 30 minutes at 30° C. To stop the enzymatic reaction, 5 μl of loading buffer were added and solution was heated for 3 minutes at 95° C. 25 μl of each reaction were loaded per well in pre-cast NuPage 12% Bis-Tris gel (Life Technology). Autophosphorylated RIPK1 band was visualized on radiographic film after 6 h exposition at −80° C."}, "[7]": {"system": "murine model of acute hepatitis (concanavalin A-induced hepatitis)", "assay": "Concanavalin A-induced acute hepatitis in mice", "type": "in vivo, C57Bl/6 WT mice", "conditions": "Nec-1s 6.25 mg/kg intraperitoneal 1 hour before 12 mg/kg Con A for 10 h", "experimental": "We use a murine model of acute hepatitis (concanavalin A-induced hepatitis) that depends on necroptosis induction (Jouan-Lanhouet et al. Semin. Cell. Dev. Biol. 2014, 35, 2-13). Sib is diluted in 50% PBS/50% DMSO.\nC57Bl/6 WT mice were pre-treated or not with 3, 6 or 9 mg/kg Sib or 6.25 mg/kg Nec-1s injected by intraperitoneal route 1 hour before treatment or not with 12 mg/kg Con A for 10 h (intravenous route) (50% PBS/50% DMSO, n=5; 50% PBS/50% DMSO+Con A, n=5; 3 mg/kg Sib+Con A, n=5; 6 mg/kg Sib+Con A, n=5; 9 mg/kg Sib+Con A, n=5; 6.25 mg/kg Nec-1s+Con A, n=5)."}, "[8]": {"system": "cytochrome P450 CYP1A enzymes in HepG2 cells", "assay": "Ethoxyresorufin O-deethylase (EROD) activity in HepG2 cells", "type": "in vitro ADME, human", "conditions": "10 μM, 24 hours", "experimental": "EROD activity corresponds to the O-deethylation of ethoxyresorufin and is mainly supported by cytochrome P450 CYP1A enzymes in HepG2 cells. Induction of CYP1A is mediated through the binding of xenobiotics to a cytosolic aryl hydrocarbon receptor AhR.\nHuman liver cancer cell lines HepG2 were treated with 10 μM of Sib, Nec-1 or Nec-1s for 24 hours. After treatment, HepG2 cells were incubated in PBS containing 5 mM ethoxyresorufin and kinetic reading was performed at 37° C. with spectrofluorometer (SpectraMax Gemini SX) over a 15 min period."}}, "data": [{"smiles": "COc1ccc(-c2cc3cccnc3[nH]2)cc1", "note": "[compound 1, 2-(4-methoxyphenyl)-1H-pyrrolo[2,3-b]pyridine]", "values": [{"measurement": "EC50", "setting": "[1]", "result": 0.4, "unit": "µM"}, {"measurement": "inhibition of necroptosis induced by TNF-α (figure legend)", "setting": "[1]", "result": "dose-dependent inhibition"}]}, {"smiles": "CN1C(=O)C(Cc2c[nH]c3ccccc23)NC1=S", "note": "(centres unmarked) [Nec-1, necrostatin-1, reference compound]", "values": [{"measurement": "IC50", "setting": "Jurkat Fadd−/− [2]", "result": 1.3, "unit": "µM"}, {"measurement": "IC50", "setting": "L929sAhFas [3]", "result": 10, "unit": "µM"}, {"measurement": "IC50", "setting": "L929sAhFas [4]", "result": 10, "unit": "µM"}, {"measurement": "IC50", "setting": "Jurkat Fadd−/− [5]", "result": 1.3, "unit": "µM"}]}, {"smiles": "c1cnc2[nH]c(-c3ccc4c(c3)OCCO4)cc2c1", "note": "[compound 5, 2-(1,4-benzodioxanyl)-1H-pyrrolo[2,3-b]pyridine]", "values": [{"measurement": "EC50", "setting": "[1]", "result": 1.4, "unit": "µM"}]}, {"smiles": "CC(C)Oc1ccc(-c2cc3cccnc3[nH]2)cc1", "note": "[compound 4, 2-(4-isopropoxyphenyl)-1H-pyrrolo[2,3-b)pyridine]", "values": [{"measurement": "EC50", "setting": "[1]", "result": 0.9, "unit": "µM"}, {"measurement": "inhibition of necroptosis induced by TNF-α (figure legend)", "setting": "[1]", "result": "dose-dependent inhibition"}]}, {"smiles": "CCOc1ccc(-c2cc3c(Cl)ccnc3[nH]2)cc1", "note": "[compound 7, 4-chloro-2-(4-ethoxyphenyl)-1H-pyrrolo[2,3-b]pyridine]", "values": [{"measurement": "inhibition of RIPK1 autophosphorylation", "setting": "[6]", "result": "dose-dependent inhibition"}, {"measurement": "EC50", "setting": "[1]", "result": 2, "unit": "µM"}, {"measurement": "inhibition of necroptosis induced by TNF-α (figure legend)", "setting": "[1]", "result": "dose-dependent inhibition"}]}, {"smiles": "CCOc1ccc(-c2cc3cc(-c4ccc(OC)c(OC)c4)cnc3[nH]2)cc1", "note": "[compound 8, 5-(3,4-dimethoxyphenyl)-2-(4-ethoxyphenyl)-1H-pyrrolo[2,3-b]pyridine]", "values": [{"measurement": "EC50", "setting": "[1]", "result": 1.5, "unit": "µM"}, {"measurement": "inhibition of necroptosis induced by TNF-α (figure legend)", "setting": "[1]", "result": "dose-dependent inhibition"}]}, {"smiles": "c1cnc2[nH]c(-c3ccc4c(c3)OCO4)cc2c1", "note": "[compound 6]", "values": [{"measurement": "IC50", "setting": "Jurkat Fadd−/− [2]", "result": 4, "unit": "µM"}, {"measurement": "IC50", "setting": "L929sAhFas [3]", "result": 10, "unit": "µM"}, {"measurement": "EC50", "setting": "[1]", "result": 1.8, "unit": "µM"}, {"measurement": "IC50", "setting": "Jurkat Fadd−/− [5]", "result": 7, "unit": "µM"}]}, {"smiles": "c1cnc2[nH]c(-c3ccc(OC4CCCC4)cc3)cc2c1", "note": "[compound 9, 2-(4-(cyclopentyloxy)phenyl)-1H-pyrrolo[2,3-b]pyridine]", "values": [{"measurement": "EC50", "setting": "[1]", "result": 3, "unit": "µM"}, {"measurement": "inhibition of necroptosis induced by TNF-α (figure legend)", "setting": "[1]", "result": "dose-dependent inhibition"}]}, {"smiles": "CN1C(=O)NC(Cc2c[nH]c3c(Cl)cccc23)C1=O", "note": "(centres unmarked) [Nec-1s, reference compound]", "values": [{"measurement": "AST and ALT levels and protection from Con A-induced hepatitis", "setting": "[7]", "result": "has a tendency to decrease AST and ALT levels and to protect mice from Con A-induced hepatitis"}, {"measurement": "induction of EROD activity", "setting": "[8]", "result": "do not induce EROD activity"}]}, {"smiles": "CCOc1ccc(-c2cc3cc(Br)cnc3[nH]2)cc1", "note": "[compound 10, 5-bromo-2-(4-ethoxyphenyl)-1H-pyrrolo[2,3-b]pyridine]", "values": [{"measurement": "inhibition of necroptosis induced by TNF-α (figure legend)", "setting": "[1]", "result": "slight dose-dependent inhibition"}]}, {"smiles": "CCOc1ccc(-c2cc3cccnc3[nH]2)cc1", "note": "[compound 3, 2-(4-ethoxyphenyl)-1H-pyrrolo[2,3-b]pyridine]", "values": [{"measurement": "IC50", "setting": "Jurkat Fadd−/− [2]", "result": 1.3, "unit": "µM"}, {"measurement": "inhibition of RIPK1 autophosphorylation", "setting": "[6]", "result": "dose-dependent inhibition"}, {"measurement": "EC50", "setting": "[1]", "result": 0.7, "unit": "µM"}, {"measurement": "inhibition of necroptosis induced by TNF-α (figure legend)", "setting": "[1]", "result": "dose-dependent inhibition"}, {"measurement": "IC50", "setting": "L929sAhFas [4]", "result": 2.5, "unit": "µM"}, {"measurement": "IC50", "setting": "Jurkat Fadd−/− [5]", "result": 2.7, "unit": "µM"}]}]}
